# PMC6637691, “Phenothiazinium Dyes Are Active against Trypanosoma cruzi In Vitro” (BioMed Research International, 2019)
# Columns and labels:
# T. cruzi amastigotes [1] = assay: Amastigote growth inhibition assay (T. cruzi-LacZ, CPRG readout); assay type: cell-based; details: Trypanosoma cruzi, LLC-MK2, amastigotes in LLCMK2 cells, 72 h, 37°C, three independent assays
# Procedure: T. cruzi (Tulahuen strain) was maintained in cultures of LLCMK2 cells and cultivated in RMPI supplemented with 10% fetal bovine serum (FBS) at 37°C, 5% CO2. The parasites used in proliferation and flow cytometry assays were genetically modified to express the enzyme β-galactosidase (T. cruzi-LacZ [9]). To illustrate the inhibition of parasite proliferation, a T. cruzi expressing GFP (G-GFP strain [10]) was used.
# (§1) LLCMK2 cells were distributed in 96-well plates (5×10^4 cells/ml) and infected with T. cruzi-LacZ at a multiplicity of infection (MOI) of 10:1 (5×10^5 cells/ml). The cultures were incubated for 48 h, 37°C, and 5% CO2 and washed with phosphate buffered saline (PBS). Serial dilutions of compounds (starting from 10 μM) in RPMI were added to the cultures in duplicate and incubated for 72 h, 37°C,and 5% CO2. […] After incubation, the media were removed and followed by the reaction with chlorophenol red-β-D-galactopyranoside (CPRG) buffer (200 μM CPRG, 2% Trion X-100, and 50 mM MgCl2 in PBS) for 4 h, 37°C. The plates were read at 570 nm in ELISA reader (Synergy™ H1, Biotek). Three independent assays were performed.
# (§2) The percentages of proliferation and cytotoxicity were calculated using the mean absorbance of the compound-free control and the absorbance of each treatment. The IC50 and the combination index (CI) were achieved using Compusyn software (http://www.combosyn.com/) and the selective index (CC50/IC50) was also determined. From CI values, synergistic (CI < 1), and antagonistic (CI > 1) interactions were identified. For oxidative stress and mitochondrial activity, data were analyzed by one-way ANOVA followed by a Dunnett's post hoc test (compared to nontreated groups) on GraphPad 5.0 software.
# Cytotoxicity (MTT assay) = assay type: cell-based; details: rhesus monkey; LLCMK2 cells, 72 h, MTT assay
# Procedure: (§3) The cytotoxic effects of the phenothiazinium dyes in LLCMK2 cells was measured by Thiazolyl Blue Tetrazolium Bromide (MTT) assay, as described in [12]. A suspension of LLCMK2 cells (5 × 10^4/ml) in RPMI supplemented with 10% FBS was distributed in 96-well plates and cultivated (37°C, 5% CO2) to the confluence. […] The cultures were incubated for 72 h, 37°C, and 5% CO2. For the measurement of the […], the media were carefully removed and an MTT solution (500 μg/ml MTT in PBS) was added. The reaction was performed for 4 h at 37°C, 5% CO2. After the reaction, the MTT solution was discarded and the formazan crystals solubilized with DMSO. The absorbance was measured in an ELISA reader (Synergy™ H1, Biotek) at 570 nm. The percentages of proliferation and cytotoxicity were calculated using the mean absorbance of the compound-free control and the absorbance of each treatment. The IC50 and the combination index (CI) were achieved using Compusyn software (http://www.combosyn.com/) and the selective index (CC50/IC50) was also determined. […] For oxidative stress and mitochondrial activity, data were analyzed by one-way ANOVA followed by a Dunnett's post hoc test (compared to nontreated groups) on GraphPad 5.0 software.
# LLCMK2 cells = assay: Cytotoxicity (MTT assay); assay type: cell-based; details: CC50 LLCMK2 / IC50 amastigotes
# Procedure: as §3
# T. cruzi amastigotes [2] = assay: Drug combination assay against amastigotes (CPRG, Compusyn); assay type: cell-based; details: Trypanosoma cruzi
# Procedure: as §1, §2
# As references, isolated compounds of each combination were evaluated concomitantly in the same plate. The inhibition percentage was calculated in comparison to the nontreated group and the IC50 and CI values were achieved using Compusyn software.
# T. cruzi trypomastigotes [3] = assay: ROS measurement (DCFDA, flow cytometry) in trypomastigotes; assay type: cell-based, Trypanosoma cruzi; details: 4 × IC50, 2 h
# Procedure: (§4) LLCMK2 cells in 75 cm^2 flasks were cultivated to confluence and were infected with 1 × 10^7 T. cruzi trypomastigotes. […] The infected cells were centrifuged for 10 min, 3000 g, and washed with PBS and suspended in trypsin to separate cells and parasites. The cultures were distributed in 1.5 ml microtubes (~ 1 × 10^6 trypomastigotes/tube) and incubated with 4 × IC50 of compounds at 37°C, 5% CO2 for 2 h. Menadione (MN), a classic inducer of cellular oxidative stress, was used as the positive control of ROS production as previously described in [14]. After treatment, the cultures were centrifuged for 10 minutes, 3000 g, and washed with PBS and suspended in trypsin. […] Similarly, the mitochondrial membrane potential was determined after incubation with 5 μM JC-1 under the same conditions. […] In polarized mitochondria, the dye forms J-aggregates, emitting red fluorescence. The cultures were washed with PBS and analyzed in a BD FACS-Canto (BD Biosciences) flow cytometer with the FACSDiva (BD) 6.1.3 software. Due to the size, host cells (infected and noninfected) and trypomastigotes were separately analyzed by flow cytometry. The median of fluorescence of oxidized DCF and the populations with active mitochondria were measured with excitation/emission at 488 nm/529 nm and […]. […]
# noninfected LLCMK2 cells = assay: ROS measurement (DCFDA, flow cytometry) in noninfected cells; assay type: cell-based; details: 4 × IC50, 2 h
# Procedure: as §4
# T. cruzi trypomastigotes [4] = assay: Mitochondrial membrane potential (JC-1, flow cytometry) in trypomastigotes; assay type: cell-based, Trypanosoma cruzi; details: 4 × IC50, 2 h
# Procedure: as §4
# [5] = 72 h, read-out: IC50 (compound 1), compound 1 alone, evaluated in the same plate as the combination
# [6] = 72 h, compound 2 alone, evaluated in the same plate as the combination, read-out: IC50 (compound 2)
Compound,IC50 (T. cruzi amastigotes [1]) [nM],CC50 at 72 h (Cytotoxicity (MTT assay)) [nM],"SI (selectivity index, CC50/IC50) (LLCMK2 cells)",IC50 (T. cruzi amastigotes [2]; [5]) [nM],ROS production in trypomastigotes (T. cruzi trypomastigotes [3]),ROS production in noninfected cells (noninfected LLCMK2 cells),Mitochondrial membrane potential in trypomastigotes (T. cruzi trypomastigotes [4]),IC50 (T. cruzi amastigotes [2]; [6]) [nM],"IC50 (T. cruzi amastigotes [2]; 72 h, compound 1 alone, evaluated in the same plate as the combination, read-out: IC50 (compound 1)) [nM]","IC50 (T. cruzi amastigotes [2]; 72 h, read-out: IC50 (compound 2), compound 2 alone, evaluated in the same plate as the combination) [nM]","IC50 (T. cruzi amastigotes [2]; read-out: IC50 (compound 2), compound 2 alone, evaluated in the same plate as the combination) [nM]"
"O=C(Cn1ccnc1[N+](=O)[O-])NCc1ccccc1 [BZ, Benznidazole]",3410 ± 380,> 200000,> 58.65,3320,no ROS production was detected,increased ROS production,did not affect mitochondria,–,–,–,–
"Cc1cc(N(C)C)cc2[s+]c3cc(N(C)C)cc(C)c3nc12 [DMMB, 1,9–Dimethyl Methylene Blue]",80 ± 20,4460 ± 230,51.26,–,–,–,–,71,–,–,–
"CN(C)c1ccc2nc3ccc(=[N+](C)C)cc-3sc2c1 [MB, Methylene Blue]",440 ± 150,16800 ± 1180,37.40,–,–,–,–,477,560,–,–
"CC1=CC(=O)c2ccccc2C1=O [MN, Menadione]",–,–,–,–,increased ROS production,increased ROS production,reduced the membrane potential,–,–,–,–
"CCNc1cc2[s+]c3cc(NCC)c(C)cc3nc2cc1C [NMB, New Methylene Blue]",90 ± 10,4190 ± 1300,44.71,122,–,–,–,100,–,–,–
"Cc1cc2nc3ccc(N(C)C)cc3[s+]c2cc1N [TBO, Toluidine Blue O]",270 ± 110,7930 ± 5220,28.61,381,–,–,–,–,–,322,322
